{"source": "patent US20230348415A1", "about": "“BISPECIFIC ANTAGONISTS OF RETINOL-BINDING PROTEIN 4 THAT STABILIZE TRANSTHYRETIN TETRAMERS, THEIR PREPARATION, AND USE IN THE TREATMENT OF COMMON AGE-RELATED COMORBIDITIES” (The Trustees of Columbia University in the City of New York, priority 2020, published 2023)", "key": {"[1]": {"assay": "Metabolic stability and clearance in rat liver microsomes", "format": "in vitro ADME", "settings": "30 minute incubation", "method": "(§1) The results of metabolic stability determinations for novel compounds and testosterone (positive control) were conducted in the presence of human, rat, mouse, and monkey liver microsomes. Values shown are percent of parent remaining after a 30 minute incubation. All measurements were done in duplicate. Assay results for testosterone were within an acceptable range.\n(§2) Mixed-gender human liver microsomes (Lot #1710084), male Sprague-Dawley rat liver microsomes (Lot #1610290), male CD-1 mouse liver microsomes (Lot #1710069), and male Cynomolgous liver microsomes (Lot #1510193) were purchased from XenoTech. The reaction mixture, minus NADPH, was prepared as described below. The test article was added into the reaction mixture at a final concentration of 1 μM. The control compound, testosterone, was run simultaneously with the test article in a separate reaction. An aliquot of the reaction mixture (without cofactor) was equilibrated in a shaking water bath at 37° C. for 3 minutes. The reaction was initiated by the addition of cofactor, and the mixture was incubated in a shaking water bath at 37° C. Aliquots (100 μL) were withdrawn at 0, 10, 20, 30, and 60. […] Half-lives were calculated using GraphPad software, fitting to a single-phase exponential decay equation."}, "RBP4": {"target": "RBP4 (Homo sapiens (Human), UniProt P02753)", "assay": "RBP4 SPA binding assay (displacement of 3H-retinol)", "settings": "read-out: RBP4 SPA IC50"}, "PPARγ": {"target": "PPARγ (Homo sapiens (Human), UniProt P37231)", "sequence (P37231 whole entry, species assumed)": "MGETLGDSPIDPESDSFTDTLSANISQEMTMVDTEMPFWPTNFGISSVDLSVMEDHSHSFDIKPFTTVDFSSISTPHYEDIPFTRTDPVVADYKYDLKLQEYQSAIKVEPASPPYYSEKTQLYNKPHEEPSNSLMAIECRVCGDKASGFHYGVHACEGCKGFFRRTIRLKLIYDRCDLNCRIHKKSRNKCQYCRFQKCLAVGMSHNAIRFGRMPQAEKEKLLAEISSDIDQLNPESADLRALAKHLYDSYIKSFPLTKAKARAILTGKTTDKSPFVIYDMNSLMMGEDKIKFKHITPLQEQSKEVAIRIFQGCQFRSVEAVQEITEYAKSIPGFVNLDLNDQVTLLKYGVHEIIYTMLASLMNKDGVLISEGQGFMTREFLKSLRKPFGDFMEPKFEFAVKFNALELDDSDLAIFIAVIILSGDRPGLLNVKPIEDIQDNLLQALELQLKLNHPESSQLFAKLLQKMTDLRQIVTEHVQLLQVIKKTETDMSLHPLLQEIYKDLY", "assay": "PPARγ agonist activity"}, "TTR": {"target": "TTR (Homo sapiens (Human), UniProt P02766)", "assay": "biochemical", "format": "binding", "settings": "FITC-coupled TTR FP probe; read-out: TTR FP IC50", "method": "Compound binding to TTR was assessed in the fluorescence polarization assay. […] Each well contained 200 nM TTR and 100 nM FITC-diclofenac in the FP buffer (10 mM Tris-HCl pH 7.5, 150 mM NaCl, 0.01% CHAPS, 0.01% Prionex) along with test compounds. Nonspecific binding was determined in the presence of 500 μM unlabeled diclofenac (Sigma-Aldrich). Reactions with test compounds were incubated overnight at 4° C. and FP was measured on SpectramaxM5e plate reader (Molecular Devices)."}, "[2]": {"assay": "Metabolic stability and clearance in human liver microsomes", "format": "in vitro ADME", "method": "as §1, §2"}, "[3]": {"assay": "Plasma protein binding, rat plasma", "format": "in vitro ADME", "settings": "Sprague Dawley, pH 7.4, read-out: % PPB, R (converted)", "method": "(§3) Plasma protein binding (PPB) for compounds determination for compound (±)-44 in PBS (pH 7.4) was conducted by Eurofins using equilibrium dialysis of plasma with HPLC-UV/Vis detection.\n(§4) The peak areas of the test compound in the buffer and test samples were used to calculate percent binding and recovery according to the following formulas:\n(§5) • Areap=Peak area of analyte in protein matrix • Areab=Peak area of analyte in buffer • Areac=Peak area of analyte in control sample"}, "[4]": {"assay": "Plasma protein binding, human plasma", "format": "in vitro ADME", "settings": "pH 7.4, read-out: % PPB, H (converted)", "method": "as §3, §4, §5"}, "serum RBP4": {"target": "serum RBP4 (Mus musculus (Mouse), UniProt Q00724)", "assay": "Serum RBP4 measurement after a single oral dose in mice", "format": "in vivo", "method": "FIG. 5. Pharmacokinetic and pharmacodynamic properties of (±)-44 in mice. (A) Serum RBP4 levels following a single 25 mg/kg oral administration of (±)-44. (B) Blood compound levels following administration of a single oral 5 mg/kg dose of (±)-44. Data represented as the mean±SD. Three mice per treatment group were used in the study.\nBlood samples were collected from a tail vein. Whole blood was drawn into a centrifuge tube and was allowed to clot at room temperature for 30 minutes followed by centrifugation at 2000 g for 15 minutes at […] to collect serum. Aliquots of plasma samples collected in the mouse pharmacokinetic study were analyzed for the RBP4 concentration using the RBP4 (mouse/rat) dual ELISA kit (AdipoGen, San Diego, CA) following the manufacturer's instructions. In adi-hRBP4 transgenic mouse experiments, blood samples were collected from a tail vein. […] Mouse serum RBP4 (produced predominantly in the liver) was measured using the RBP4 (mouse/rat) dual ELISA kit (AdipoGen, San Diego, CA; catalog number AG-45A-0012YTP-KI01)"}, "RBP4-TTR interaction": {"target": "RBP4-TTR interaction (Homo sapiens (Human), UniProt P02753)", "assay": "HTRF RBP4-TTR interaction assay", "format": "biochemical", "settings": "1 μM retinol; read-out: RBP4-TTR HTRF IC50", "method": "HTRF Cryptate labeling kit from CisBio (Cisbio, cat #62EUSPEA, Bedfored, MA) was used to label TTR with Eu^3+ Cryptate. The assay was performed in a final assay volume of 16 μl in the buffer that contained 10 mM Tris-HCl pH 7.5, 1 mM DTT, 0.05% NP-40, 0.05% Prionex, 6% glycerol, and 400 mM KF. […] All of the reactions were performed under dim red light in the dark. The plates were read in the SpectraMax M5e Multimode Plate Reader (Molecular Devices, Sunnyvale, CA) after the overnight incubation at 4° C. […] The HTRF signal was expressed as the ratio of fluorescence intensity: Flu668/Flu620×10,000."}, "[5]": {"assay": "Plasma protein binding, mouse plasma", "format": "in vitro ADME", "settings": "CD-1, pH 7.4, read-out: % PPB (converted)", "method": "as §3, §4, §5"}}, "data": [{"smiles": "Cc1cc(C(=O)O)nc(N2CCC(COc3ccccc3C(F)(F)F)C2)n1", "note": "(racemic) [Compound (±)-44, (±)-6-Methyl-2-(3-((2-(trifluoromethyl)phenoxy)methyl)pyrrolidin-1-yl)pyrimidine-4-carboxylic Acid]", "values": [{"measurement": "Liver Microsomal Stability (% remaining at 30 min), RLM", "setting": "[1]", "result": 93, "unit": "%"}, {"measurement": "IC50", "setting": "RBP4", "result": 0.08, "unit": "µM"}, {"measurement": "IC50", "setting": "PPARγ", "result": "> 100", "unit": "µM"}, {"measurement": "PPARγ agonist activity", "setting": "PPARγ", "result": "devoid of PPARγ agonist activity"}, {"measurement": "IC50", "setting": "TTR", "result": 2.85, "unit": "µM"}, {"measurement": "Liver Microsomal Stability (% remaining at 30 min), HLM", "setting": "[2]; 30 minute incubation", "result": 105, "unit": "%"}, {"measurement": "microsomal CLint at 1 μM", "setting": "[2]; both sexes, human liver microsomes, read-out: Microsomal CLint, H", "result": "< 0.0231", "unit": "µL/min/mg"}, {"measurement": "fraction unbound", "setting": "[3]", "result": 0.04}, {"measurement": "fraction unbound", "setting": "[4]", "result": 0.002}, {"measurement": "effect on serum TTR levels", "setting": "serum RBP4; compound dosing in mice, data not shown", "result": "no effect"}, {"measurement": "maximum reduction in serum RBP4", "setting": "serum RBP4; single 25 mg/kg oral dose, 6 h after dose", "result": 81, "unit": "%"}, {"measurement": "reduction in serum RBP4 at the 24 h time point", "setting": "serum RBP4; single 25 mg/kg oral dose, 24 h", "result": 64, "unit": "%"}, {"measurement": "IC50", "setting": "RBP4-TTR interaction", "result": 0.25, "unit": "µM"}, {"measurement": "fraction unbound", "setting": "[5]", "result": 0.04}]}]}
